Source: patent US20230000808A1, “COMPOSITIONS AND METHODS EXCLUDING OR WITH REDUCED GLUTAMINE FOR THE TREATMENT OF HEMOGLOBINOPATHIES AND THALASSEMIAS” (AXCELLA HEALTH INC., priority 2019, published 2023)

Test system: whole blood from healthy controls
Assay: ROS (DCF fluorescence) in whole blood of healthy control donors, H2O2-induced
Assay type: cell-based, human
Conditions: healthy control donors treated with H2O2; dose-responsive
Method: Whole blood samples were appropriately diluted in Ca^2+- and Mg^2+-free Dulbecco's phosphate buffered saline (DPBS, Life Technologies) and the concentration of erythrocytes (RBC/mL) was measured on a Cellometer K2 Fluorescent Viability Cell Counter according to the manufacturer's RBC/AOPI protocol (Nexcelom Biosciences).
Cells were then diluted to 1×10^6 RBC/mL into either prewarmed 37° C. […] 2′-7′-dichlorofluorescin diacetate (DCF, Millipore Sigma), 20 mM in dimethyl sulfoxide (DMSO, Fisher) were added to a working concentration of 100 μM. Cells were incubated with dye for 15 minutes at 37° C., 5% CO2 in a tissue culture incubator, washed once, and resuspended in the 0.9 volumes of the same prewarmed 37° C. buffer with 5 minute spins at 500×g, accel/decal=5 in a swing arm centrifuge (Beckman Coulter). […] Where possible due to solubility constrains, pH-7.4-adjusted stock solutions of amino acids were used. Wells were mixed by pipetting and plates incubated at 37° C., 5% CO2 in a tissue culture incubator for 30 minutes. Optionally, 40 mM H2O2 (Millipore Sigma) freshly prepared in the same buffer was added to bring the concentration to 2 mM, wells mixed by pipetting, and plates were incubated an additional 30, 60, 120, or 240 minutes before fluorescence measurement of ROS signal on a Synergy H4 (BioTek) microplate reader with excitation=488 nm and emission=530 nm, and gain either set to autogain, 75, or 100.

CC(=O)N[C@@H](CS)C(=O)O [N-Acetyl Cysteine, N-acetylcysteine]
ROS measured in whole blood: reduced
